{"source": "patent US7928141B2", "about": "(priority 2005, dated 2011)", "type_in_all_cases": "in vivo, human", "details_in_all_cases": "using only lidocaine", "key": {"[1]": {"assay": "Anesthetic trial in large area operations: liposuction in the lower limb (buttock, thigh, calf)", "method": "The above components were dissolved in a small amount (<1 mL) of distilled water and mixed homogeneously, and the mix was then diluted to 60 mL to yield the L.S.Z. solution.\n20 bottles were filled each with 500 mL normal saline solution. To each bottle was added 15 mL of 2% lidocaine solution (as described in Example 1) and 3 mL of the L.S.Z. solution as prepared in this Example. The bottles were shaken respectively to mix well, yielding L.S.Z. anesthetic solution having a long duration of action.\n[…] While injecting the anesthetic solution, liposuction was conducted using a liposuction tube, finally removing 6 L aspirated fat solution in total. The operation lasted for about 3 hours. When injecting, 8 injection points, the subcutaneous depth of 1-2 cm, and the radiation injection method around the injection point were chosen to form 8 anesthetic zones with a radius of 20 cm. After injection, the onset time shortened from the original about 1 min (using only lidocaine) down to around 5 sec, and the duration of analgesia prolonged from the original 4 hours (using only lidocaine) to about 9 days."}, "[2]": {"assay": "Anesthetic trial in general liposuction operations", "method": "The above components were dissolved in a small amount (<1 mL) of distilled water and mixed homogeneously, and the mix was then diluted to 150 mL to yield the L.S.Z. solution.\n50 bottles were filled each with 500 mL normal saline solution. […] The bottles were shaken respectively to mix well, yielding L.S.Z. anesthetic solution having a long duration of action.\nThen, a common syringe with a 25 cm long needle was used to inject subcutaneously the above anesthetic solution in 45 sites of a […], 1.70 m in height, and 90 kg in weight. While injecting the anesthetic solution, liposuction was conducted using a liposuction tube, finally removing 18 L aspirated fat solution in total. The operation lasted for about 9 hours and the weight of the subject was reduced by 15 kg in total."}, "[3]": {"assay": "Anesthetic trial in middle area operations: liposuction in the abdomen", "method": "The above components were dissolved in a small amount (<1 mL) of distilled water and mixed homogeneously, and the mixture was then diluted to 10 mL to yield the L.S.Z. solution.\n10 bottles were filled each with 500 mL of normal saline solution. To each bottle was added 10 ml 2% lidocaine solution (as described in Example 1), and 1 mL of the L.S.Z. solution. The bottles were shaken respectively to mix well, yielding L.S.Z. anesthetic solution having a long duration of action.\n[…] While injecting the anesthetic solution, liposuction was conducted using a liposuction tube, finally removing 3500 mL aspirated fat solution in total. The operation lasted 1 hour. When injecting, 3 injection points, the subcutaneous depth of 1-2 cm, and radiation injection around the injection point were chosen to form 3 anesthetic zones with a radius of 15 cm. After injection, the onset time shortened from the original about 1 min (using only lidocaine) down to about 5 sec, and the duration of analgesia prolonged from the original 4 hours (using only lidocaine) to about 9 days."}}}
{"smiles": "CCN(CC)CC(=O)Nc1c(C)cccc1C", "note": "[lidocaine]", "values": [{"measurement": "duration of analgesia", "setting": "[1]", "result": 4, "unit": "h"}, {"measurement": "onset time", "setting": "[1]", "result": "about 1 min"}, {"measurement": "duration of analgesia", "setting": "[2]", "result": 4, "unit": "h"}, {"measurement": "onset time", "setting": "[2]", "result": "about 1 min"}, {"measurement": "duration of analgesia", "setting": "[3]", "result": 4, "unit": "h"}, {"measurement": "onset time", "setting": "[3]", "result": "about 1 min"}]}
